Source: patent publication US10294227B2, “Compounds” (UNIVERSITY COURT OF THE UNIVERSITY OF EDINBURGH, priority 2015, dated 2019)
Read-outs that look alike come from different tables or passages of the source.

What was measured:
CYP1A2 [1] = target: T1, CYP1A2 (Homo sapiens (Human), UniProt P05177); assay: CYP P450 inhibition
KIT = KIT (Homo sapiens (Human), UniProt P10721); assay: Kinase screening assay (IC50)
CYP2D6 = CYP2D6 (Homo sapiens (Human), UniProt P10635); assay: CYP P450 inhibition
hERG channel [2] = target: T2, hERG channel (Homo sapiens (Human), UniProt Q12809); assay: hERG Safety Assay, Ionworks high-throughput electrophysiology
RET = RET (Homo sapiens (Human), UniProt P07949); assay: Kinase screening assay (IC50)
RET, sequence (P07949 29-1114): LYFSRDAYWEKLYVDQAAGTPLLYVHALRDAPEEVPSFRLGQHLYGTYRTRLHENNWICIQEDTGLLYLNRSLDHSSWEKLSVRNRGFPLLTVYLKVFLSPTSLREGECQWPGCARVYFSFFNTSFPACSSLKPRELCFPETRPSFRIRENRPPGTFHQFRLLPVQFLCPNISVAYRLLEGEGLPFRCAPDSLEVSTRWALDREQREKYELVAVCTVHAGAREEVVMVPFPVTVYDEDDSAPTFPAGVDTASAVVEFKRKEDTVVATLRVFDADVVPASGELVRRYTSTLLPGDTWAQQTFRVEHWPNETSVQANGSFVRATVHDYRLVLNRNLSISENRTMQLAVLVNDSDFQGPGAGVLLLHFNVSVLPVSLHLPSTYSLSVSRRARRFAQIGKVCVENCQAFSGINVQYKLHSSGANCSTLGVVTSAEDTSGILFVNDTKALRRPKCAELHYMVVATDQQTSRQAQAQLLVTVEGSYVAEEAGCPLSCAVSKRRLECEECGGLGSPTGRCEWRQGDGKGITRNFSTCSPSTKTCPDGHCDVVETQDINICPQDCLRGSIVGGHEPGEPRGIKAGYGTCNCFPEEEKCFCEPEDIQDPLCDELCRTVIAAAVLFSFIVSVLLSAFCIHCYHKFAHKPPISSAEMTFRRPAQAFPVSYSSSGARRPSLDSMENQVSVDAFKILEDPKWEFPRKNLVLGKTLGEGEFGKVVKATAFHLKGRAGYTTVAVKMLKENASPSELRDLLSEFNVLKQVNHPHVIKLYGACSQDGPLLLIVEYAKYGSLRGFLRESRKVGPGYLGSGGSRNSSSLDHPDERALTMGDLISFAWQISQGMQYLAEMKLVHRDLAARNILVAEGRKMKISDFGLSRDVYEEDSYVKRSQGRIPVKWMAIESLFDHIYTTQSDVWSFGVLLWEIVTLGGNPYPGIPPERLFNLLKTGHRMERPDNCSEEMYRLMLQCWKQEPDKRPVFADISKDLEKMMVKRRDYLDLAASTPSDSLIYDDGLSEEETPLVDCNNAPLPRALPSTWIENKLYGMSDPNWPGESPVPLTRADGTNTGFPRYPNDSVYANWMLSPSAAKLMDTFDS

CYP2C19 = CYP2C19 (Homo sapiens (Human), UniProt P33261); assay: CYP P450 inhibition
CYP2C9 = CYP2C9 (Homo sapiens (Human), UniProt P11712); assay: CYP P450 inhibition
[3] = PBS, aqueous buffer
CYP3A4 = CYP3A4 (Homo sapiens (Human), UniProt P08684); assay: CYP P450 inhibition
MCF7 cells = assay: Cell viability assay (PrestoBlue); format: cell-based; conditions: Homo sapiens, MCF7, 120 h; cell viability at day 5; read-out: Antiproliferative activity (EC50) MCF7
[4] = target: selection of recombinant kinases; assay: Kinase screening assay, panel summary; format: biochemical, human; conditions: 15 kinases of Table 2
[5] = test system: SYF fibroblasts (deficient for Src, Yes, and Fyn); assay: Cell viability assay (PrestoBlue); format: cell-based, murine; conditions: Mus musculus, Fibroblast, 120 h; cell viability at day 5; read-out: Antiproliferative activity (EC50) SYF (−/− Src)
LYN = LYN (Homo sapiens (Human), UniProt P07948); assay: Kinase screening assay (IC50)
LYN, sequence (P07948 whole entry): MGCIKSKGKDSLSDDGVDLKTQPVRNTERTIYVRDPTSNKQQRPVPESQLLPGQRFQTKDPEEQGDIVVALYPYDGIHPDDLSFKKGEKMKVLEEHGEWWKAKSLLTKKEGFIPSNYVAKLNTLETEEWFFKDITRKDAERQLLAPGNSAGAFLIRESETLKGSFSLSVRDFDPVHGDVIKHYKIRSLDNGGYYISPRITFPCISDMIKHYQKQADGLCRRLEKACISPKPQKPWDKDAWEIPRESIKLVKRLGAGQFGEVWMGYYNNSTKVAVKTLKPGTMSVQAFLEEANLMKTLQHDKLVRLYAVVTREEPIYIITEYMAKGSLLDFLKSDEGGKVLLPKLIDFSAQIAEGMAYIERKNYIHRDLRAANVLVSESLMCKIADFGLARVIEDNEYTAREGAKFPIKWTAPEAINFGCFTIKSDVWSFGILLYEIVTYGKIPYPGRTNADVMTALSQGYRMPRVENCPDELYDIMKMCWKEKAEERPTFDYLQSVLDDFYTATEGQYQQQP

hERG channel [6] = target: T2, hERG channel; assay: Predictor hERG Fluorescence Polarization Assay; format: binding; conditions: fluorescence polarization kit; read-out: hERG channel inhibition IC50
Text: These experiments corroborated the safety of the compounds.

LCK = LCK (Homo sapiens (Human), UniProt P06239); assay: Kinase screening assay (IC50)
LCK, sequence (P06239 whole entry): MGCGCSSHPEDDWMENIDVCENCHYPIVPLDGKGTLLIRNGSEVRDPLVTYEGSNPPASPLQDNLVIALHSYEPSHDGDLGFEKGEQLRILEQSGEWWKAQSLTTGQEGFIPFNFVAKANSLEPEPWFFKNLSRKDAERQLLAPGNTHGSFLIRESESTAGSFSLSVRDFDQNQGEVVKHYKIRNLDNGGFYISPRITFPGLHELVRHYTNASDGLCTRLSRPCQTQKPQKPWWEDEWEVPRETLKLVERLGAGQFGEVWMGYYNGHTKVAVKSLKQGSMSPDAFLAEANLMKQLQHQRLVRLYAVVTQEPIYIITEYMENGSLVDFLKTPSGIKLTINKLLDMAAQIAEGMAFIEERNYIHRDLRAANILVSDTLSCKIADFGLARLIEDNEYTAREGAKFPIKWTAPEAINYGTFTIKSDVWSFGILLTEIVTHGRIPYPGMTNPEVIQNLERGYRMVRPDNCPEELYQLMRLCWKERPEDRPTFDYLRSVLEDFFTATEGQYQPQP

FGR = FGR (Homo sapiens (Human), UniProt P09769); assay: Kinase screening assay (IC50)
FYN = FYN (Homo sapiens (Human), UniProt P06241); assay: Kinase screening assay (IC50)
[7] = human, serum
[8] = Liver microsome stability; format: in vitro ADME; conditions: % of unmodified drug after 30 min incubation with liver microsomes
[9] = rat, serum
PDGFRa = PDGFRa (Homo sapiens (Human), UniProt P16234); assay: Kinase screening assay (IC50); format: biochemical
PDGFRa, sequence (P16234 24-1089): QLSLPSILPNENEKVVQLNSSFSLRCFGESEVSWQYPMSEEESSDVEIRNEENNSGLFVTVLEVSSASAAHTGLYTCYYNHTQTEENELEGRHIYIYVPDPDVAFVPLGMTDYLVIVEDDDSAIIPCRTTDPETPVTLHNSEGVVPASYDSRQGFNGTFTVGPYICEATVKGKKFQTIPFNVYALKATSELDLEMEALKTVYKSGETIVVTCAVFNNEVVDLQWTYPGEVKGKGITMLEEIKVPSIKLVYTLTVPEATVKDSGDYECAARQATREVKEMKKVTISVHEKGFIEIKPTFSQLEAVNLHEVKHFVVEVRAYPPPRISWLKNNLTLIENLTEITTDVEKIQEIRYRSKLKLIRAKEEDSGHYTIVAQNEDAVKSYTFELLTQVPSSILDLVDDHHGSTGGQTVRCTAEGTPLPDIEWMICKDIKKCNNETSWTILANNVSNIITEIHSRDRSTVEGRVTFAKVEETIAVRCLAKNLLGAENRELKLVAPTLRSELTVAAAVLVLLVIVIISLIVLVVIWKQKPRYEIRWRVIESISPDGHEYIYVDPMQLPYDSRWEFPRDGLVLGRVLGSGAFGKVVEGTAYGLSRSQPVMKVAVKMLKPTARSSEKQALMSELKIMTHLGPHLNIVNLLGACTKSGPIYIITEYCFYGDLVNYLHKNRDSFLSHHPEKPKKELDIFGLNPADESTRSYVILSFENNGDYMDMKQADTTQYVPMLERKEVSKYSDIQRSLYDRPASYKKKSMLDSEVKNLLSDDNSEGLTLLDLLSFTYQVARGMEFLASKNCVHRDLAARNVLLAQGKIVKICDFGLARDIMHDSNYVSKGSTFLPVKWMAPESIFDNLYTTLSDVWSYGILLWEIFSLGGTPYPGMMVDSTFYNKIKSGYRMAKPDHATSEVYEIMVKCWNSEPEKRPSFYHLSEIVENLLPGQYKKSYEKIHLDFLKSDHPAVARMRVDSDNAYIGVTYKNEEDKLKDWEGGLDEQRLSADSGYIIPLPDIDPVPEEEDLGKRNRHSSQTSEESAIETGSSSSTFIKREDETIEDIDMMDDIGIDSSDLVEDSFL

mTOR = mTOR (Homo sapiens (Human), UniProt P42345); assay: Kinase screening assay (IC50); format: biochemical
BLK = BLK (Homo sapiens (Human), UniProt P51451); assay: Kinase screening assay (IC50)
HCK = HCK (Homo sapiens (Human), UniProt P08631); assay: Kinase screening assay (IC50)
CYP1A2 [10] = target: T1, CYP1A2; assay: in vitro
in vivo = conditions: female, mouse
[11] = Stability in mouse plasma; format: in vitro ADME; conditions: % of unmodified drug after 120 min in plasma
Stability in rat plasma = conditions: % of unmodified drug after 120 min in plasma
[12] = mouse, in vivo
[13] = Stability in human plasma; format: in vitro ADME; conditions: % of unmodified drug after 120 min in plasma
FRK/PTK5 = FRK/PTK5 (Homo sapiens (Human), UniProt P42685); assay: Kinase screening assay (IC50)
[14] = read-out: Kinase Screening (IC50) c-KIT
[15] = read-out: Target inhibition (IC50) KIT, 10 μM ATP
[16] = read-out: Kinase Screening (IC50) RET
[17] = read-out: Target inhibition (IC50) RET, 10 μM ATP
[18] = read-out: Kinase Screening (IC50) LYN, Src Family
[19] = read-out: Target inhibition (IC50) LYN, 10 μM ATP
[20] = read-out: Kinase Screening (IC50) LCK, Src Family
[21] = read-out: Target inhibition (IC50) LCK, 10 μM ATP
[22] = read-out: Kinase Screening (IC50) FGR, Src Family
[23] = read-out: Target inhibition (IC50) FGR, 10 μM ATP
[24] = read-out: Kinase Screening (IC50) FYN, Src Family
[25] = read-out: Target inhibition (IC50) FYN, 10 μM ATP
[26] = 10 μM ATP, read-out: Target inhibition (IC50) PDGFRa
[27] = read-out: Kinase Screening (IC50) PDGFRa
[28] = 10 μM ATP, read-out: Target inhibition (IC50) mTOR
[29] = read-out: Kinase Screening (IC50) mTOR
[30] = read-out: Kinase Screening (IC50) BLK, Src Family
[31] = read-out: Target inhibition (IC50) BLK, 10 μM ATP

KIT, sequence (P10721 26-976): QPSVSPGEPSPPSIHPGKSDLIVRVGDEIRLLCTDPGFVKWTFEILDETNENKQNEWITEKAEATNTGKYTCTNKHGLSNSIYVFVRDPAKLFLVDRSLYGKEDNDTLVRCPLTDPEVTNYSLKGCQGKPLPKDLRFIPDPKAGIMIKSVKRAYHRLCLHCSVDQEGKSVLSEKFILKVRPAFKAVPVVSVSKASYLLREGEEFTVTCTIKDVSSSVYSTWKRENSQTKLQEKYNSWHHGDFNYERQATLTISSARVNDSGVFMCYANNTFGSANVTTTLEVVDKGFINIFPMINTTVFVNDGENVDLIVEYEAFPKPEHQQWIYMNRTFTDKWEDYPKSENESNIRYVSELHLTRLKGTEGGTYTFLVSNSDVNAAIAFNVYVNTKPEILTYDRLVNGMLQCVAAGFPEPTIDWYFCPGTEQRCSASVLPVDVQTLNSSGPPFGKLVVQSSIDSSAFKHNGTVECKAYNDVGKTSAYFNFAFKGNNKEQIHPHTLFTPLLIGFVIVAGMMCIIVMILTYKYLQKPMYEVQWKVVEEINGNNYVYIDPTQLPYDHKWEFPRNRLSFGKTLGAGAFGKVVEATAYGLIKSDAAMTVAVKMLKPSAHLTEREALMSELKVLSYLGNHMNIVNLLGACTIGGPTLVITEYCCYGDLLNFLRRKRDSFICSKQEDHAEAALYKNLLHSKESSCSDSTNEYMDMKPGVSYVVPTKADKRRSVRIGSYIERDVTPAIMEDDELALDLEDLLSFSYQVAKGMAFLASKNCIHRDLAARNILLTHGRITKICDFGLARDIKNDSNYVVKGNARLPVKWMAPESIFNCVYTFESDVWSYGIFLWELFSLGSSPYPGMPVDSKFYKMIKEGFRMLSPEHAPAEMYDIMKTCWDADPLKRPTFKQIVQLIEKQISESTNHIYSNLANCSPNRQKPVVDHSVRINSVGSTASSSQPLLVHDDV
T1 sequence (P05177 whole entry): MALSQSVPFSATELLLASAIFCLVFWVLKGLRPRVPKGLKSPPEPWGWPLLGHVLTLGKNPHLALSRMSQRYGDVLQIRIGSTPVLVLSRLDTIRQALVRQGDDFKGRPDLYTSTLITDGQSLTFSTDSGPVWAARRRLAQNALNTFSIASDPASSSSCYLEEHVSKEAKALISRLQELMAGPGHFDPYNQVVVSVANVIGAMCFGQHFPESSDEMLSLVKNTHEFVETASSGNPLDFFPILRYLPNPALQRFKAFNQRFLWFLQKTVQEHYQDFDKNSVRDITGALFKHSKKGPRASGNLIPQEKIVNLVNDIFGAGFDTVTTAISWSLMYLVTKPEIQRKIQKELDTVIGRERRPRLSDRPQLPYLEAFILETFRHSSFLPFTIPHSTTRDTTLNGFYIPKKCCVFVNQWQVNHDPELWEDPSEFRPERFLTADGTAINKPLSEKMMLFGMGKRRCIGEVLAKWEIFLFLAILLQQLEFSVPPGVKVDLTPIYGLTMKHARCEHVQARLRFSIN

| IC50 (KIT) [nM] | IC50 (KIT; [14]) [nM] | inhibition at 10 µM (CYP2D6) [%] | IC50 (RET; [16]) [nM] | IC50 (RET; [17]) [nM] | inhibition at 10 µM (CYP2C19) [%] | inhibition at 10 µM (CYP2C9) [%] | inhibition at 10 µM (CYP3A4) [%] | Compound | IC50 (KIT; [15]) [nM] | IC50 (hERG channel [2]) [nM] | solubility [3] [mg/mL] | IC50 (LYN; [18]) [nM] | IC50 (LYN; [19]) [nM] | IC50 (LCK; [20]) [nM] | IC50 (LCK; [21]) [nM] | IC50 (FGR; [22]) [nM] | IC50 (FGR; [23]) [nM] | IC50 (FYN; [24]) [nM] | IC50 (FYN; [25]) [nM] | fraction unbound [7] | further results |
| --- | --- | --- | --- | --- | --- | --- | --- | --- | --- | --- | --- | --- | --- | --- | --- | --- | --- | --- | --- | --- | --- |
| 5130 | > 1000 | 31.8 | > 1000 | > 1000 | -5.4 | -23.1 | -74.6 | COc1cc(-c2nn(CCN3CCC(N(C)C)CC3)c3ncnc(N)c23)ccc1NC(=O)OC(C)(C)C [Compound 506, tert-butyl N-[4-[4-amino-1-[2-[4-(dimethylamino)-1-piperidyl]ethyl]pyrazolo[3,4-d]pyrimidin-3-yl]-2-methoxy-phenyl]carbamate] | > 1000 | 18200 | > 100 |  |  |  |  |  |  |  |  |  | inhibition at 10 µM (CYP1A2 [1]): 24.6%; IC50 (RET): > 10000 nM |
|  |  |  |  |  |  |  |  | CN(C)C1CCN(CCn2nc(-c3ccc(CC(=O)O)cc3)c3c(N)ncnc32)CC1 [Compound 556, 2-[4-[4-amino-1-[2-[4-(dimethylamino)-1-piperidyl]ethyl]pyrazolo[3,4-d]pyrimidin-3-yl]phenyl]acetic acid] |  |  |  |  |  |  |  |  |  |  |  |  | EC50 (MCF7 cells): > 10000 nM; Target inhibition (IC50), remark on the whole panel [4]: No inhibition found; EC50 [5]: > 10000 nM |
| 100 to 1000 | 100 to 1000 | 7.4 | > 1000 | > 1000 | 26.8 | -35.4 | 3.1 | COc1cc(-c2nn(CCN3CCC(N(C)C)CC3)c3ncnc(N)c23)ccc1NCc1ccccc1 [Compound 533, 3-[4-(benzylamino)-3-methoxy-phenyl]-1-[2-[4-(dimethylamino)-1-piperidyl]ethyl]pyrazolo[3,4-d]pyrimidin-4-amine] |  | 2550 |  | < 10 | < 10 | < 10 | < 10 | < 10 | < 10 | < 10 | < 10 | 0.118 | IC50 (hERG channel [6]): 10000 to 15000 nM; 30 min Liver Microsome stability [8]: 98.8%; fraction unbound [9]: 0.106; IC50 (PDGFRa; [26]): > 1000 nM; IC50 (PDGFRa; [27]): > 1000 nM; IC50 (mTOR; [28]): > 1000 nM; IC50 (mTOR; [29]): > 1000 nM; IC50 (BLK; [30]): < 10 nM; IC50 (BLK; [31]): < 10 nM; IC50 (HCK; read-out: Kinase Screening (IC50) HCK, Src Family): < 10 nM; IC50 (HCK; read-out: Target inhibition (IC50) HCK, 10 μM ATP): < 10 nM; inhibition at 10 µM (CYP1A2 [10]): 8.3% |

| Compound | IC50 (KIT) [nM] | IC50 (KIT; [14]) [nM] | inhibition at 10 µM (CYP2D6) [%] | IC50 (RET; [16]) [nM] | IC50 (RET; [17]) [nM] | inhibition at 10 µM (CYP2C19) [%] | inhibition at 10 µM (CYP2C9) [%] | inhibition at 10 µM (CYP3A4) [%] | IC50 (KIT; [15]) [nM] | IC50 (hERG channel [2]) [nM] | solubility [3] [mg/mL] | IC50 (LYN; [18]) [nM] | IC50 (LYN; [19]) [nM] | IC50 (LCK; [20]) [nM] | IC50 (LCK; [21]) [nM] | IC50 (FGR; [22]) [nM] | IC50 (FGR; [23]) [nM] | IC50 (FYN; [24]) [nM] | IC50 (FYN; [25]) [nM] | fraction unbound [7] | further results |
| --- | --- | --- | --- | --- | --- | --- | --- | --- | --- | --- | --- | --- | --- | --- | --- | --- | --- | --- | --- | --- | --- |
| COc1cc(-c2nn(CCN3CCC(N(C)C)CC3)c3ncnc(N)c23)ccc1CC(=O)OC(C)(C)C [Compound 565, tert-butyl 2-[4-[4-amino-1-[2-[4-(dimethylamino)-1-piperidyl]ethyl]pyrazolo[3,4-d]pyrimidin-3-yl]-2-methoxy-phenyl]acetate] |  | > 1000 | 9.4 | > 1000 | > 1000 | -0.4 | -35.8 | 5.7 | > 1000 | > 25000 | > 100 | < 10 | < 10 | < 10 | < 10 | < 10 | < 10 | < 10 | < 10 | 0.177 | bioavailability (in vivo): 52%; half-life (in vivo): 2 h; bioavailability (in vivo; po): 52%; Stability in mouse plasma [11]: 100%; 30 min Liver Microsome stability [8]: 78.7%; fraction unbound [9]: 0.139; Stability in rat plasma (Stability in rat plasma): 93.3%^; IC50 (PDGFRa; [26]): > 1000 nM; IC50 (PDGFRa; [27]): > 1000 nM; toxic effects in PK study [12]: no toxic effects; IC50 (mTOR; [28]): > 1000 nM; IC50 (mTOR; [29]): > 1000 nM; IC50 (BLK; [30]): < 10 nM; IC50 (BLK; [31]): < 10 nM; Stability in human plasma [13]: 94%; IC50 (FRK/PTK5; read-out: Kinase Screening (IC50) FRK, Src Family): < 10 nM; IC50 (FRK/PTK5; read-out: Target inhibition (IC50) FRK/PTK5, 10 μM ATP): < 10 nM; inhibition at 10 µM (CYP1A2 [10]): 4.3% |
